Patent US9611248B2, “Chemical compounds” (Syngenta Participations AG, priority 2013, dated 2017)

tested on: a variety of test species; test: Post-emergence herbicidal activity; type: in vivo; set-up: key to ABUTH (Abutilon theophrasti) damage score / AMARE (Amaranthus retroflexus) damage score / ALOMY (Alopecurus myosuroides) damage score / ECHCG (Echinochloa crus-galli) damage score / ZEAMX (Zea mays) damage score / SOLNI (Solanum nigrum) damage score: 0 = no damage to plant, 5 = total damage to plant; conditions: rate 250 g/ha, evaluated after 13 days
How it was run: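 Plants grown for 8 days in pots were sprayed post-emergence with compound in acetone/water (50:50) containing 0.5% Tween 20. They were kept in a glasshouse at 24/16 °C day/night, 14 h light, 65% humidity, watered twice daily. Damage was scored after 13 days (0 none to 5 total).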

| SMILES | ABUTH (Abutilon theophrasti) damage score | ALOMY (Alopecurus myosuroides) damage score | AMARE (Amaranthus retroflexus) damage score | ECHCG (Echinochloa crus-galli) damage score | SETFA (Setaria faberi) damage score | ZEAMX (Zea mays) damage score |
| --- | --- | --- | --- | --- | --- | --- |
| COC1=C(C)C(=O)N(c2cc(C(F)(F)F)c(OCc3ccco3)cn2)C1O (stereo not drawn) [AD86] | 4 | 2 | 5 | 1 | 3 | 0 |
| COC1=C(C)C(=O)N(c2cc(C(F)(F)F)c(OCCc3ccsc3)cn2)C1O (stereo not drawn) [AD87] | 4 | 3 | 5 | 2 | 3 | 1 |

same assay, conditions: rate 1000 g/ha, evaluated after 13 days

| SMILES | ABUTH (Abutilon theophrasti) damage score | ALOMY (Alopecurus myosuroides) damage score | AMARE (Amaranthus retroflexus) damage score | ECHCG (Echinochloa crus-galli) damage score | SETFA (Setaria faberi) damage score | ZEAMX (Zea mays) damage score |
| --- | --- | --- | --- | --- | --- | --- |
| COC1=C(C)C(=O)N(c2cc(C(F)(F)F)c(Oc3ccccc3)cn2)C1O (stereo not drawn) [AD88] | 5 | 3 | 5 | 4 | 5 | 1 |
| COC1=C(C)C(=O)N(c2cc(C(C)C)c(C(=O)NC(C)(C)C)cn2)C1O (stereo not drawn) [AD89] | 5 | 5 | 5 | 5 | 5 | 3 |
| COC1=C(C)C(=O)N(c2cc(C)c(NC(=O)C(C)(C)C)cn2)C1O (stereo not drawn) [AD90] | 5 | 5 | 5 | 5 | 5 | 2 |
| COC1=C(C)C(=O)N(c2cc(C)c(S(=O)(=O)N3CCOCC3)cn2)C1O (stereo not drawn) [AD91] | 0 | 0 | 2 | 0 | 0 | 2 |
| CCN(CC)C(=O)c1cnc(N2C(=O)C(C)=C(OC)C2O)cc1C(F)(F)F (stereo not drawn) [AD92] | 5 | 4 | 4 | 5 | 4 | 3 |
| COC1=C(C)C(=O)N(c2cc(C(F)(F)F)c(SCc3ccccc3)cn2)C1O (stereo not drawn) [AD93] | 3 | 2 | 4 | 3 | 4 | 0 |
| COC1=C(C)C(=O)N(c2cc(C)c(S(=O)(=O)NC(C)(C)C)cn2)C1O (stereo not drawn) [AD94] | 1 | 1 | 0 | 1 | 1 | 0 |
| COC1=C(C)C(=O)N(c2cc(C)c(S(=O)(=O)NC(C)C)cn2)C1O (stereo not drawn) [AD95] | 5 | 4 | 5 | 4 | 5 | 0 |
| CCCCNS(=O)(=O)c1cnc(N2C(=O)C(C)=C(OC)C2O)cc1C (stereo not drawn) [AD96] | 3 | 4 | 5 | 4 | 5 | 0 |
| COC1=C(C)C(=O)N(c2cc(C)c(S(=O)(=O)N3CCCCC3)cn2)C1O (stereo not drawn) [AD97] | 0 | 0 | 0 | 0 | 0 | 0 |
| COC1=C(C)C(=O)N(c2cc(C(F)(F)F)c(C(=O)NCc3ccccc3)cn2)C1O (stereo not drawn) [AD98] | 5 | 4 | 5 | 4 | 4 | 1 |
| CCc1cc(N2C(=O)C(C)=C(OC)C2O)ncc1-c1cccc(C#N)c1 (stereo not drawn) [AD99] | 5 | 1 | 5 | 5 | 4 | 1 |
| CCc1cc(N2C(=O)C(C)=C(OC)C2O)ncc1-c1ccccc1OC (stereo not drawn) [AD100] | 4 | 0 | 5 | 0 | 4 | 1 |
| CCc1cc(N2C(=O)C(C)=C(OC)C2O)ncc1-c1ccoc1 (stereo not drawn) [AD102] | 4 | 3 | 5 | 3 | 4 | 1 |
| CCc1cc(N2C(=O)C(C)=C(OC)C2O)ncc1-c1ccc(C)c([N+](=O)[O-])c1 (stereo not drawn) [AD103] | 4 | 3 | 5 | 4 | 4 | 1 |
| CCc1cc(N2C(=O)C(C)=C(OC)C2O)ncc1-c1ccccc1[N+](=O)[O-] (stereo not drawn) [AD104] | 5 | 2 | 5 | 2 | 4 | 0 |
